According to PubChem BioAssay AID1963825 (Molecular Pharmacology Branch, DTP, NCI, 2024):

Experiment: Anticancer human tumor 997537-175-T-J1-PDC patient-derived colon adenocarcinoma cell line growth inhibition [POLQ]
Conditions: 997537-175-T-J1-PDC complex spheroid viability, combination with POLQ inhibitors; for IC50: curve of first compound; for viability, T/C: stronger effect = lower value
Summary of the method: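 PDC + HUVEC + MSC complex spheroids; POLQ inhibitors ± partner drugs; top conc. at/near clinical Cmax, else 10 microM (SN-38 1 microM), half-log dilutions; 37 degrees C, 5% CO2.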
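Further: luminescence signal used as a surrogate for viable cells; spheroids exposed to drugs for seven days before readout.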

For `Cn1ncnc1[C@H]1c2n[nH]c(=O)c3cc(F)cc(c23)N[C@@H]1c1ccc(F)cc1` + COC1C(OC(N)=O)C(O)C(Oc2ccc3c(O)c(NC(=O)c4ccc(O)c(CC=C(C)C)c4)c(=O)oc3c2C)OC1(C)C, the IC50 (second compound 0.0316 µM) was over 100 nM, the IC50 (second compound 0.1 µM) was over 100 nM and the IC50 (second compound 0.316 µM) was over 100 nM. The IC50 (second compound 1 µM) was over 100 nM, the IC50 (second compound 3.16 µM) was over 100 nM and the IC50 (second compound 10 µM) was over 100 nM. For the same compound, the viability, T/C (second compound 0.0316 µM, first compound 0.000316 µM) was 92.9%, the viability, T/C (second compound 0.0316 µM, first compound 0.001 µM) was 99.7% and the viability, T/C (second compound 0.0316 µM, first compound 0.00316 µM) was 108%. For the same compound, the viability, T/C (second compound 0.0316 µM, first compound 0.01 µM) was 97.1%, the viability, T/C (second compound 0.0316 µM, first compound 0.0316 µM) was 90.9% and the viability, T/C (second compound 0.0316 µM, first compound 0.1 µM) was 82.8%. For the same compound, the viability, T/C (second compound 0.1 µM, first compound 0.000316 µM) was 102%, the viability, T/C (second compound 0.1 µM, first compound 0.001 µM) was 96.8% and the viability, T/C (second compound 0.1 µM, first compound 0.00316 µM) was 91.8%. The viability, T/C (second compound 0.1 µM, first compound 0.01 µM) was 91.9%, the viability, T/C (second compound 0.1 µM, first compound 0.0316 µM) was 97.9% and the viability, T/C (second compound 0.1 µM, first compound 0.1 µM) was 91.5%. For the same compound, the viability, T/C (second compound 0.316 µM, first compound 0.000316 µM) was 102%, the viability, T/C (second compound 0.316 µM, first compound 0.001 µM) was 95.9% and the viability, T/C (second compound 0.316 µM, first compound 0.00316 µM) was 98.3%. It also gave a viability, T/C (second compound 0.316 µM, first compound 0.01 µM) of 91%, a viability, T/C (second compound 0.316 µM, first compound 0.0316 µM) of 91.7% and a viability, T/C (second compound 0.316 µM, first compound 0.1 µM) of 92.8%. The viability, T/C (second compound 1 µM, first compound 0.000316 µM) was 104%, the viability, T/C (second compound 1 µM, first compound 0.001 µM) was 97.1% and the viability, T/C (second compound 1 µM, first compound 0.00316 µM) was 94.9%. The viability, T/C (second compound 1 µM, first compound 0.01 µM) was 101%, the viability, T/C (second compound 1 µM, first compound 0.0316 µM) was 104% and the viability, T/C (second compound 1 µM, first compound 0.1 µM) was 102%. The viability, T/C (second compound 3.16 µM, first compound 0.000316 µM) was 97%, the viability, T/C (second compound 3.16 µM, first compound 0.001 µM) was 104% and the viability, T/C (second compound 3.16 µM, first compound 0.00316 µM) was 94.8%. For the same compound, the viability, T/C (second compound 3.16 µM, first compound 0.01 µM) was 96.4%, the viability, T/C (second compound 3.16 µM, first compound 0.0316 µM) was 105% and the viability, T/C (second compound 3.16 µM, first compound 0.1 µM) was 83.3%. The viability, T/C (second compound 10 µM, first compound 0.000316 µM) was 94.7%, the viability, T/C (second compound 10 µM, first compound 0.001 µM) was 94.8% and the viability, T/C (second compound 10 µM, first compound 0.00316 µM) was 89.1%. The viability, T/C (second compound 10 µM, first compound 0.01 µM) was 110%, the viability, T/C (second compound 10 µM, first compound 0.0316 µM) was 98.3% and the viability, T/C (second compound 10 µM, first compound 0.1 µM) was 102%.
